The results in this text go back to US20230014181A1, “CULTURE SYSTEM AND METHODS FOR IMPROVED MODELING OF NEUROLOGICAL CONDITIONS” (Genentech, Inc., priority 2021, published 2023).

Structures can show the parent of a compound that is named as a salt. Where two headings read alike, the source gives them in different places.

This assay deals with human iPSC neurons, astrocytes and microglia treated with 5 μM sAβ42s. In words: Focused small molecule screen, triple culture (neuron, astrocyte, microglia), rescue from sAβ42s toxicity. Type of assay: cell-based. Conditions: for percent rescue from sAβ42s toxicity at 50 µM / percent rescue from sAβ42s toxicity at 12.5 µM: Homo sapiens, iPSC. On the procedure: FIGS. 11A-11D show synapse % rescue versus MAP2% rescue (FIGS. 11A-11B) and beta III tubulin % rescue versus MAP2% rescue (FIGS. 11C-11D), in neurons and astrocytes (FIGS. 11A and 11C) or neurons, astrocytes, and microglia (FIGS. 11B and 11D) treated with 5 μM sAβ42s and small molecules from a focused screen of known neuroprotective agents at multiple concentrations (50 μM, 25 μM, 12.5 μM and 6.25 μM (double culture), 50 μM, 12.5 μM, 3.1 μM and 0.78 μM (triple culture). Small molecules that prevented toxicity in dendrites (MAP2), synapses (Synapsin 1/2), cell count (CUX2), or axons ([…]) at or above 30% were considered hits (red dotted line).
Frozen cells were thawed and immediately seeded at a density of 8,000 cells/well of a 384-well plate onto 8-week old neuron-astrocyte co-culture in Microglia media (BrainPhys™ neuronal media (Stem Cell Technologies) supplemented with 1× B27 with vitamin A, 1×N2 Plus Media Supplement (R&D Systems), 20 ng/mL BDNF, 20 ng/mL GDNF, 1 mM creatine, 200 nM L-ascorbic acid, 1 μg/mL mouse laminin, 0.5 mM GlutaMAX™ (Thermofisher), 0.5× penicillin-streptomycin, 1× normocin, 5 ng/mL TGF-β, 100 ng/mL human IL-34, 1.5 μg/mL cholesterol, 1 ng/mL gondoic acid, 100 ng/mL oleic acid, 460 μM thioglycerol, 1× insulin-transferrin-selenium, 25 ng/mL rhM-CSF, 5.4 μg/mL human insulin solution).
In double (neuron, astrocyte) and triple (neuron, astrocyte, microglia) cultures, each small molecule listed in Table 1 was tested in the AD model paradigm at up to four concentrations. Molecules that characterized ≥30% rescue in any of the four measurements of dendrites area (MAP2), synapses count (synapsin 1/2), or cell count (CUX2), or axon area (Beta III Tubulin; “BT3”)) were classified as hits (FIGS. 11A-11D, Table 2, and Table 3).

[1] abbreviates: 50.00 μM compound, read-out: % B3T rescue.
[2] abbreviates: 50.00 μM compound, read-out: % MAP2 rescue.
The mark [3] stands for this setting: 50.00 μM compound, read-out: % Synapse rescue.
Where [4] appears, read: 12.50 μM compound, read-out: % B3T rescue.
[5] abbreviates: 12.50 μM compound, read-out: % MAP2 rescue.
Where [6] appears, read: 12.50 μM compound, read-out: % Synapse rescue.

`COc1ccc(S(=O)(=O)NCCCC(=O)Nc2ccc(Sc3ccc(N)cc3)cc2)cc1` [BI-6C9]: for the setting “50.00 μM compound”, the “% B3T rescue” value is 65%, the “% MAP2 rescue” value worked out at 58% and the “% Synapse rescue” value turned out to be 55%.

Regarding `Cc1c[nH]c(-c2cnc(NCCNc3ccc(C#N)cn3)nc2-c2ccc(Cl)cc2Cl)n1` [CHIR 99021 trihydrochloride], the percent rescue from sAβ42s toxicity at 50 µM under setting [1] was determined as 66%, the percent rescue from sAβ42s toxicity at 50 µM under setting [2] was determined as 58% and the percent rescue from sAβ42s toxicity at 50 µM under setting [3] worked out at 46%.

As for `Oc1cc2c(cc1O)CN(C(=S)NCCc1ccc(Cl)cc1)CCC2` [Capsazepine], the percent rescue from sAβ42s toxicity at 12.5 µM under setting [4] worked out at 50%, the percent rescue from sAβ42s toxicity at 12.5 µM under setting [5] was found to be 44% and the percent rescue from sAβ42s toxicity at 12.5 µM under setting [6] turned out to be 44%.

With `Oc1cc(O)c2c(c1)O[C@H](c1ccc(O)c(O)c1)[C@H](O)C2` [Epicatechin], the percent rescue from sAβ42s toxicity at 50 µM came out at 30% under setting [1], 28% under setting [2] and 20% under setting [3].

Regarding `C=CC[C@@H]1/C=C(\C)C[C@H](C)C[C@H](OC)[C@H]2O[C@@](O)(C(=O)C(=O)N3CCCC[C@H]3C(=O)O[C@H](/C(C)=C/[C@@H]3CC[C@@H](O)[C@H](OC)C3)[C@H](C)[C@@H](O)CC1=O)[C@H](C)C[C@@H]2OC` [FK 506], the percent rescue from sAβ42s toxicity at 12.5 µM under setting [4] amounted to 52%, the percent rescue from sAβ42s toxicity at 12.5 µM under setting [5] stood at 34% and the percent rescue from sAβ42s toxicity at 12.5 µM under setting [6] was 34%.

Turning to `C=C(c1ccc(C(=O)O)c(F)c1)c1cc2c(cc1C)C(C)(C)CCC2(C)C` [Fluorobexarotene], where the note is “3.13 μM compound”, the “% B3T rescue” value stood at 50%, the “% MAP2 rescue” value is 43% and the “% Synapse rescue” value worked out at 34%. In addition, under “12.50 μM compound”, the “% B3T rescue” value is listed as 33%, the “% MAP2 rescue” value came out at 40% and the “% Synapse rescue” value is given as 33%.

Turning to `C/C=C1\C(=O)C[C@H]2[C@@H]3CCC4=CC(=O)CC[C@]4(C)[C@H]3CC[C@]12C` [Guggulsterone], the percent rescue from sAβ42s toxicity at 50 µM came to 36% under setting [1], 19% under setting [2] and 17% under setting [3].

With `O=C(COc1ccc(Cl)cc1)NC1CCC(NC(=O)COc2ccc(Cl)cc2)CC1` (stereo not drawn) [ISR Inhibitor, ISRIB], for the setting “50.00 μM compound”, the “% B3T rescue” value is reported as 22%, the “% MAP2 rescue” value is 31% and the “% Synapse rescue” value worked out at 21%.

With `Cc1cc(C(=O)CN2CCCC2)c(C)n1-c1ccc(F)cc1` [IU1], for the setting “12.50 μM compound”, the “% B3T rescue” value worked out at 41%, the “% MAP2 rescue” value turned out to be 32% and the “% Synapse rescue” value is 23%.

Turning to `O=C1Nc2ccccc2/C1=C1/Nc2ccccc2/C1=N\O` [Indinibin-3′-monoxime], the “% B3T rescue” value (3.13 μM compound) came out at 31%, the “% B3T rescue” value (12.50 μM compound) turned out to be 74% and the “% B3T rescue” value (50.00 μM compound) is reported as 49%. For the same compound, the “% MAP2 rescue” value is reported as 6% (3.13 μM compound), 37% (12.50 μM compound) and 23% (50.00 μM compound). Besides, the “% Synapse rescue” value is, setting by setting: (3.13 μM compound) 9%; (12.50 μM compound) 44%; (50.00 μM compound) 34%.

In the case of `CCCn1c(C)c(C(=O)c2cccc3ccccc23)c2ccccc21` [JWH 015], where the note is “12.50 μM compound”, the “% B3T rescue” value turned out to be 60%, the “% MAP2 rescue” value stood at 50% and the “% Synapse rescue” value was 43%. For the same compound, where the note is “50.00 μM compound”, the “% B3T rescue” value was determined as 42%, the “% MAP2 rescue” value was 38% and the “% Synapse rescue” value was 26%.

Take `CCOC(=O)c1ccc(N(C)c2csc(-c3ccccc3)n2)cc1` [Neuropathiazol]: under “12.50 μM compound”, the “% B3T rescue” value came out at 35%, the “% MAP2 rescue” value is 44% and the “% Synapse rescue” value turned out to be 42%. Besides, for the setting “50.00 μM compound”, the “% B3T rescue” value worked out at 35%, the “% MAP2 rescue” value is 27% and the “% Synapse rescue” value came out at 28%.

Consider `Cn1cnc2c(NCc3ccccc3)nc(NCCO)nc21` [Olomoucine], for which the percent rescue from sAβ42s toxicity at 50 µM under setting [1] is 69%, the percent rescue from sAβ42s toxicity at 50 µM under setting [2] is -8% and the percent rescue from sAβ42s toxicity at 50 µM under setting [3] is -15%.
